Measurements: PubChem BioAssay (NCI)
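Compound exposure: 48 hours, 5 concentrations, 96-well plates. Abbreviation: GI50, concentration required for 50% inhibition of growth. TGI: total growth inhibition.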

How the values were obtained:
Assay in all cases: inhibition of tumour cell growth, NCI panel, 48 h
IGROV1 ovarian = test system: IGROV1 ovarian
M14 melanoma = test system: M14 melanoma
TK-10 renal = test system: TK-10 renal
CAKI-1 renal = test system: CAKI-1 renal
HCT-15 colon = test system: HCT-15 colon
MDA-MB-435 = test system: MDA-MB-435
SNB-75 CNS = test system: SNB-75 CNS
SK-MEL-5 melanoma = test system: SK-MEL-5 melanoma
KM12 colon = test system: KM12 colon
SR leukemia = test system: SR leukemia

Compound | TGI (IGROV1 ovarian) [µM] | TGI (M14 melanoma) [µM] | TGI (TK-10 renal) [µM] | TGI (CAKI-1 renal) [µM] | TGI (HCT-15 colon) [µM] | TGI (MDA-MB-435) [µM] | TGI (SNB-75 CNS) [µM] | TGI (SK-MEL-5 melanoma) [µM] | TGI (KM12 colon) [µM] | TGI (SR leukemia) [µM] | GI50 (IGROV1 ovarian) [nM] | GI50 (HCT-15 colon) [nM] | GI50 (SK-MEL-5 melanoma) [nM] | GI50 (KM12 colon) [nM]
C=CCn1c(-c2ccc([N+](=O)[O-])cc2)csc1=N | > 100 | > 100 | > 100 | > 100 | > 100 | > 100 | 95.6 | > 100 | > 100 |  |  |  |  | 
O=C(N/N=C/c1cc(Br)cc(Br)c1[O-])c1ccccc1O.O=C(N/N=C/c1cc(Br)cc(Br)c1[O-])c1ccccc1O.[Ni+2] | 1.34 | 1.47 | 1.87 | 1.53 | 1.57 |  | 4.9 | 1.44 | 2.13 | 1.65 |  |  |  | 
COc1ccc(N2C(=O)C3c4[nH]c5ccccc5c4C4CCCCC4C3C2=O)cc1 (stereo not drawn) | 64.3 | > 100 | 58.8 | > 100 | > 100 |  | 17.5 | 66 | > 100 | 25.2 |  |  |  | 
Cc1cc(S(=O)(=O)/N=C(/NN)NNc2cccc(C(F)(F)F)n2)c(S)cc1Cl |  | 39.9 | 51.8 | 57.1 | 38.2 | 40.6 | 32 | 37.9 | 37.2 | 55.1 |  |  |  | 
Cc1nc2ccccc2c(/C=C/c2ccc(Cl)cc2)c1C(=O)/C=C/c1ccccc1 | 3.68 |  |  |  | 4.03 |  |  | 2.96 | 3.04 |  | 1240 | 1360 | 1610 | 1560
CCOC(=O)c1c(-c2cccc3ccccc23)c(C#N)c(=S)n(C2OC(COC(C)=O)C(OC(C)=O)C(OC(C)=O)C2OC(C)=O)c1C (stereo not drawn) | > 100 | > 100 | > 100 |  | > 100 | > 100 | 87.9 | > 100 | > 100 | > 100 |  |  |  | 
C=C(C)CNC(=S)N(N)c1ccc2ccccc2c1 | > 100 | > 100 | 71.4 |  | 28.7 | > 100 | > 100 | > 100 | 62.4 | > 100 |  |  |  | 
COc1ccc(Nc2nc(N)c(C(=O)c3cccs3)s2)cc1 | 41.5 | 34.6 | 24.3 | > 100 | > 49.1 | 22.8 |  | 12.8 | 15.9 | 5.88 |  |  |  | 
CCOC(=O)C(NC(=O)OC(C)(C)C)C(=O)OCC | > 100 |  | > 100 | > 100 | > 100 | > 100 | > 100 | > 100 | > 100 | > 100 |  |  |  | 
Cc1c(C(=O)O)n2cnnc2c2ccccc12 | > 100 | > 100 | > 100 | > 100 | > 100 | > 100 |  | > 100 | > 100 | > 100 |  |  |  | 
Cc1ccc(CCC(=O)C(=O)O)s1 | > 100 | > 100 | > 100 | 90.3 | > 100 |  | > 100 | > 100 | > 100 | > 100 |  |  |  | 
